Test results taken from patent publication US10508085B2, “Compounds and methods for IDO and TDO modulation, and indications therefor” (Plexxikon Inc., priority 2016, dated 2019).

Assays:
[1] = molecular target: T1, Human Indoleamine 2,3-dioxygenase (IDO) (Homo sapiens, UniProt P14902); assay: Human IDO enzymatic assay (kynurenine level); format: biochemical; settings: 6 nM IDO, 10 μM L-Trp; geometric mean; read-out: IDO1 GMean: IC50 (μM) (Biochemical Assay)
T1 construct: His tag (N); made in house; host or cells: E. coli
In short: (§1)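 Kynurenine formed is measured after TCA quench and 50 °C hydrolysis, with % inhibition against full-reaction and no-enzyme controls (5% DMSO). IDO: 6 nM enzyme, 10 μM L-Trp, 5 μM methylene blue, 20 min; TDO: 1 nM, 350 μM L-Trp, 0.4 μM methylene blue, 70 min; both pH 6.5, room temp, E. coli-expressed His-tagged.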

[2] = molecular target: T2, Human Tryptophan 2,3-dioxygenase (TDO) (Homo sapiens, UniProt P48775); assay: Human TDO enzymatic assay (kynurenine level); format: biochemical; settings: 1 nM TDO, 350 μM L-Trp; geometric mean; read-out: TDO GMean: IC50 (μM) (Biochemical Assay)
T2 construct: His tag (N); made in house; host or cells: E. coli
In short: as §1

[3] = molecular target: T3, human IDO (IDO1-expressing HEK293 cells) (Homo sapiens, UniProt P14902); assay: Cell based kynurenine assay, IDO1-expressing HEK293 cell clones; settings: IDO1-expressing HEK293 cells, 24 hours incubation; geometric mean; read-out: HEK293 IDO1 Kynurenine GMean IC50 (μM) (Cellular Assay)
T3 construct: expressed in transfected cells
In short: (§2)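 IC50 values come from nonlinear regression of kynurenine reduction in supernatants of human IDO1- or TDO-expressing HEK293 cells incubated 24 h with serially diluted compounds, normalised to cell and media-only controls containing 0.2% DMSO.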

[4] = molecular target: T4, human TDO (TDO-expressing HEK293 cells) (Homo sapiens, UniProt P48775); assay: Cell based kynurenine assay, TDO-expressing HEK293 cell clones; settings: TDO-expressing HEK293 cells, 24 hours incubation; geometric mean; read-out: HEK293 TDO Kynurenine GMean IC50 (μM) (Cellular Assay)
T4 construct: expressed in transfected cells
In short: as §2

T3 sequence (P14902 whole entry): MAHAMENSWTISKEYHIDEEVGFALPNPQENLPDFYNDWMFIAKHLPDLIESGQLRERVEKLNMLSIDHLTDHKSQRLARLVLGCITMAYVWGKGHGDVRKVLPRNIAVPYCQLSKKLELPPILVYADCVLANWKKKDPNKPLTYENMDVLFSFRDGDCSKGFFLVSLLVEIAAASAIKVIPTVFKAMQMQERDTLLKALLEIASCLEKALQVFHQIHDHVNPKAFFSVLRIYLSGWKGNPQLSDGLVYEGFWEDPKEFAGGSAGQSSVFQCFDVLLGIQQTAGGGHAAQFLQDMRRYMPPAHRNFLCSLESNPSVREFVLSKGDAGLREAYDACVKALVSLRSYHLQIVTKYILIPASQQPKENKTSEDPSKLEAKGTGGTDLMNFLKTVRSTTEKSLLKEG
T1 sequence (P14902 whole entry): as above
T4 sequence (P48775 whole entry): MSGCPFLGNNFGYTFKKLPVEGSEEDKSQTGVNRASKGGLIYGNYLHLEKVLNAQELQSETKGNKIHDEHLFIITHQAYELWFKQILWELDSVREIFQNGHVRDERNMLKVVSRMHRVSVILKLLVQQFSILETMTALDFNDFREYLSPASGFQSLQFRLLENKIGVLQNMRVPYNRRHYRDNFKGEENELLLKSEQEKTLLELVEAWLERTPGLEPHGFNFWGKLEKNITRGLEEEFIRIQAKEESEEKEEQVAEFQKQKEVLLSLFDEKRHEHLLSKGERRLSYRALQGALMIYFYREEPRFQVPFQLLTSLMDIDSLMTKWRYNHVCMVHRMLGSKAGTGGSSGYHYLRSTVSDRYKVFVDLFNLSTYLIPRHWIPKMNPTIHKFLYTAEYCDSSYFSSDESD
T2 sequence (P48775 whole entry): as above

SMILES: O=C(Nc1cccc(C(F)(F)F)c1)N1CCC(C(F)(F)C(O)c2cc(Cl)cc3cn[nH]c23)CC1 (stereo not shown) [Compound P-0154, 4-(2-(5-chloro-1H-indazol-7-yl)-1,1-difluoro-2-hydroxyethyl)-N-(3-(trifluoromethyl)phenyl)piperidine-1-carboxamide]
- IC50 [1]: 0.0001 to 10 µM
- IC50 [2]: 0.0001 to 10 µM
- IC50 [3]: 0.0001 to 10 µM
- IC50 [4]: 0.0001 to 10 µM

SMILES: COC(=O)N1CCC(C2(C(O)c3cc(Cl)cc4cn[nH]c34)CC2)CC1 (stereo not shown) [Compound P-0155, methyl 4-(1-((5-chloro-1H-indazol-7-yl)(hydroxy)methyl)cyclopropyl)piperidine-1-carboxylate]
- IC50 [1]: 0.0001 to 10 µM
- IC50 [2]: 0.0001 to 10 µM
- IC50 [3]: 0.0001 to 10 µM
- IC50 [4]: 0.0001 to 10 µM

SMILES: NC(=O)N1CCC(C2(C(O)c3cc(Cl)cc4cn[nH]c34)CC2)CC1 (stereo not shown) [Compound P-0156, 4-(1-((5-chloro-1H-indazol-7-yl)(hydroxy)methyl)cyclopropyl)piperidine-1-carboxamide]
- IC50 [1]: 0.0001 to 10 µM
- IC50 [2]: 0.0001 to 10 µM
- IC50 [3]: 0.0001 to 10 µM
- IC50 [4]: 0.0001 to 10 µM

SMILES: O=C(Nc1ccc(F)cc1)N1CCC(C2(C(O)c3cc(Cl)cc4cn[nH]c34)CC2)CC1 (stereo not shown) [Compound P-0157, 4-(1-((5-chloro-1H-indazol-7-yl)(hydroxy)methyl)cyclopropyl)-N-(4-fluorophenyl)piperidine-1-carboxamide]
- IC50 [1]: 0.0001 to 10 µM
- IC50 [2]: 0.0001 to 10 µM
- IC50 [3]: 0.0001 to 10 µM
- IC50 [4]: 0.0001 to 10 µM

SMILES: CS(=O)(=O)N1CCC(C2(C(O)c3cc(Cl)cc4cn[nH]c34)CC2)CC1 (stereo not shown) [Compound P-0158, (5-chloro-1H-indazol-7-yl)(1-(1-(methylsulfonyl)piperidin-4-yl)cyclopropyl)methanol]
- IC50 [1]: 0.0001 to 10 µM
- IC50 [2]: 0.0001 to 10 µM
- IC50 [3]: 0.0001 to 10 µM
- IC50 [4]: 0.0001 to 10 µM

SMILES: CC(=O)N1CCC(C2(C(O)c3c(F)c(Cl)cc4cn[nH]c34)CC2)CC1 (stereo not drawn) [Compound P-0159, 1-(4-(1-((5-chloro-6-fluoro-1H-indazol-7-yl)(hydroxy)methyl)cyclopropyl)piperidin-1-yl)ethan-l-one]
- IC50 [1]: 0.0001 to 10 µM
- IC50 [2]: 0.0001 to 10 µM
- IC50 [3]: 0.0001 to 10 µM
- IC50 [4]: 0.0001 to 10 µM

SMILES: COC(=O)N1CCC(C2(C(O)c3c(F)c(Cl)cc4cn[nH]c34)CC2)CC1 (stereo not shown) [Compound P-0160, methyl 4-(1-((5-chloro-6-fluoro-1H-indazol-7-yl)(hydroxy)methyl)cyclopropyl)piperidine-1-carboxylate]
- IC50 [1]: 0.0001 to 10 µM
- IC50 [2]: 0.0001 to 10 µM
- IC50 [3]: 0.0001 to 10 µM
- IC50 [4]: 0.0001 to 10 µM

SMILES: NC(=O)N1CCC(C2(C(O)c3c(F)c(Cl)cc4cn[nH]c34)CC2)CC1 (stereo not shown) [Compound P-0161, 4-(1-((5-chloro-6-fluoro-1H-indazol-7-yl)(hydroxy)methyl)cyclopropyl)piperidine-1-carboxamide]
- IC50 [1]: 0.0001 to 10 µM
- IC50 [2]: 0.0001 to 10 µM
- IC50 [3]: 0.0001 to 10 µM
- IC50 [4]: 0.0001 to 10 µM

SMILES: CNC(=O)N1CCC(C2(C(O)c3c(F)c(Cl)cc4cn[nH]c34)CC2)CC1 (stereo not shown) [Compound P-0162, 4-(1-((5-chloro-6-fluoro-1H-indazol-7-yl)(hydroxy)methyl)cyclopropyl)-N-methylpiperidine-1-carboxamide]
- IC50 [1]: 0.0001 to 10 µM
- IC50 [2]: 0.0001 to 10 µM
- IC50 [3]: 0.0001 to 10 µM
- IC50 [4]: 0.0001 to 10 µM

SMILES: O=C(Nc1ccc(F)cc1)N1CCC(C2(C(O)c3c(F)c(Cl)cc4cn[nH]c34)CC2)CC1 (stereo not shown) [Compound P-0164, 4-(1-((5-chloro-6-fluoro-1H-indazol-7-yl)(hydroxy)methyl)cyclopropyl)-N-(4-fluorophenyl)piperidine-1-carboxamide]
- IC50 [1]: 0.0001 to 10 µM
- IC50 [2]: 0.0001 to 10 µM
- IC50 [3]: 0.0001 to 10 µM
- IC50 [4]: 0.0001 to 10 µM

SMILES: CS(=O)(=O)N1CCC(C2(C(O)c3c(F)c(Cl)cc4cn[nH]c34)CC2)CC1 (stereo not shown) [Compound P-0165, (5-chloro-6-fluoro-1H-indazol-7-yl)(1-(1-(methylsulfonyl)piperidin-4-yl)cyclopropyl)methanol]
- IC50 [1]: 0.0001 to 10 µM
- IC50 [2]: 0.0001 to 10 µM
- IC50 [3]: 0.0001 to 10 µM
- IC50 [4]: 0.0001 to 10 µM

SMILES: Nc1nc(C(=O)N2CCC(C3(C(O)c4cc(Cl)cc5cn[nH]c45)CC3)CC2)cs1 (stereo not shown) [Compound P-0166, (2-aminothiazol-4-yl)(4-(1-((5-chloro-1H-indazol-7-yl)(hydroxy)methyl)cyclopropyl)piperidin-1-yl)methanone]
- IC50 [1]: 0.0001 to 10 µM
- IC50 [2]: 0.0001 to 10 µM
- IC50 [3]: 0.0001 to 10 µM
- IC50 [4]: 0.0001 to 10 µM

SMILES: CC(C)(C1CCN(C(=O)Nc2ccc(F)cc2)CC1)C(O)c1cc(Cl)cc2cn[nH]c12 (stereo not shown) [Compound P-0167, 4-(1-(5-chloro-1H-indazol-7-yl)-1-hydroxy-2-methylpropan-2-yl)-N-(4-fluorophenyl)piperidine-1-carboxamide]
- IC50 [1]: 0.0001 to 10 µM
- IC50 [2]: 0.0001 to 10 µM
- IC50 [3]: 0.0001 to 10 µM
- IC50 [4]: 0.0001 to 10 µM

SMILES: CC(C)(C1CCN(C(=O)Nc2ccc(C#N)cc2)CC1)C(O)c1cc(Cl)cc2cn[nH]c12 (stereo not shown) [Compound P-0168, 4-(1-(5-chloro-1H-indazol-7-yl)-1-hydroxy-2-methylpropan-2-yl)-N-(4-cyanophenyl)piperidine-1-carboxamide]
- IC50 [1]: 0.0001 to 10 µM
- IC50 [2]: 0.0001 to 10 µM
- IC50 [3]: 0.0001 to 10 µM
- IC50 [4]: 0.0001 to 10 µM

SMILES: CNC(=O)N1CCC(C(C)(C)C(O)c2cc(Cl)cc3[nH]ncc23)CC1 (stereo not shown) [Compound P-0169, 4-(1-(6-chloro-1H-indazol-4-yl)-1-hydroxy-2-methylpropan-2-yl)-N-methylpiperidine-1-carboxamide]
- IC50 [1]: 0.0001 to 10 µM
- IC50 [2]: 0.0001 to 10 µM
- IC50 [3]: 0.0001 to 10 µM
- IC50 [4]: 0.0001 to 10 µM

SMILES: CCC(=O)NC(C)(C)CC(O)c1cc(Cl)cc2cn[nH]c12 (stereo not shown) [Compound P-0170, N-(4-(5-chloro-1H-indazol-7-yl)-4-hydroxy-2-methylbutan-2-yl)propionamide]
- IC50 [1]: 0.0001 to 10 µM
- IC50 [2]: 0.0001 to 10 µM
- IC50 [3]: > 10 µM
- IC50 [4]: > 10 µM

SMILES: CC(C)(C1CCN(S(C)(=O)=O)CC1)C(O)c1cc(Cl)cc2[nH]ncc12 (stereo not shown) [Compound P-0171, 1-(6-chloro-1H-indazol-4-yl)-2-methyl-2-(1-(methylsulfonyl)piperidin-4-yl)propan-1-ol]
- IC50 [1]: 0.0001 to 10 µM
- IC50 [2]: 0.0001 to 10 µM
- IC50 [3]: > 10 µM
- IC50 [4]: 0.0001 to 10 µM

SMILES: CC(=O)N1CCC(C(C)(C)C(O)c2cc(Cl)cc3[nH]ncc23)CC1 (stereo not shown) [Compound P-0172, 1-(4-(1-(6-chloro-1H-indazol-4-yl)-1-hydroxy-2-methylpropan-2-yl)piperidin-1-yl)ethan-1-one]
- IC50 [1]: 0.0001 to 10 µM
- IC50 [2]: 0.0001 to 10 µM
- IC50 [3]: 0.0001 to 10 µM
- IC50 [4]: 0.0001 to 10 µM

SMILES: OC(c1cc(Cl)cc2[nH]ncc12)C1CCCCC1 (stereo not shown) [Compound P-0173, (6-chloro-1H-indazol-4-yl)(cyclohexyl)methanol]
- IC50 [1]: 0.0001 to 10 µM
- IC50 [2]: 0.0001 to 10 µM
- IC50 [3]: > 10 µM
- IC50 [4]: 0.0001 to 10 µM

SMILES: CC(C)(C1CCOCC1)C(O)c1cc(Cl)cc2[nH]ncc12 (stereo not shown) [Compound P-0174, 1-(6-chloro-1H-indazol-4-yl)-2-methyl-2-(tetrahydro-2H-pyran-4-yl)propan-1-ol]
- IC50 [1]: 0.0001 to 10 µM
- IC50 [2]: 0.0001 to 10 µM
- IC50 [3]: 0.0001 to 10 µM
- IC50 [4]: 0.0001 to 10 µM

SMILES: CC(C)(C1CCN(C(=O)NCC(F)(F)F)CC1)C(O)c1cc(Cl)cc2cn[nH]c12 (stereo not shown) [Compound P-0175, 4-(1-(5-chloro-1H-indazol-7-yl)-1-hydroxy-2-methylpropan-2-yl)-N-(2,2,2-trifluoroethyl)piperidine-1-carboxamide]
- IC50 [1]: 0.0001 to 10 µM
- IC50 [2]: 0.0001 to 10 µM
- IC50 [3]: 0.0001 to 10 µM
- IC50 [4]: 0.0001 to 10 µM

SMILES: CC(C)(C1CCN(C(=O)NC2CC2)CC1)C(O)c1cc(Cl)cc2cn[nH]c12 (stereo not shown) [Compound P-0176, 4-(1-(5-chloro-1H-indazol-7-yl)-1-hydroxy-2-methylpropan-2-yl)-N-cyclopropylpiperidine-1-carboxamide]
- IC50 [1]: 0.0001 to 10 µM
- IC50 [2]: 0.0001 to 10 µM
- IC50 [3]: 0.0001 to 10 µM
- IC50 [4]: 0.0001 to 10 µM

SMILES: CC(C)(C1CCN(C(=O)OCC(F)(F)F)CC1)C(O)c1cc(Cl)cc2cn[nH]c12 (stereo not shown) [Compound P-0177, 2,2,2-trifluoroethyl 4-(1-(5-chloro-1H-indazol-7-yl)-1-hydroxy-2-methylpropan-2-yl)piperidine-1-carboxylate]
- IC50 [1]: 0.0001 to 10 µM
- IC50 [2]: 0.0001 to 10 µM
- IC50 [3]: 0.0001 to 10 µM
- IC50 [4]: 0.0001 to 10 µM

SMILES: CC(C)(C1CCN(C(=O)Nc2ccccc2F)CC1)C(O)c1cc(Cl)cc2cn[nH]c12 (stereo not shown) [Compound P-0178, 4-(1-(5-chloro-1H-indazol-7-yl)-1-hydroxy-2-methylpropan-2-yl)-N-(2-fluorophenyl)piperidine-1-carboxamide]
- IC50 [1]: 0.0001 to 10 µM
- IC50 [2]: 0.0001 to 10 µM
- IC50 [3]: 0.0001 to 10 µM
- IC50 [4]: 0.0001 to 10 µM

SMILES: COc1ccccc1NC(=O)N1CCC(C(C)(C)C(O)c2cc(Cl)cc3cn[nH]c23)CC1 (stereo not shown) [Compound P-0179, 4-(1-(5-chloro-1H-indazol-7-yl)-1-hydroxy-2-methylpropan-2-yl)-N-(2-methoxyphenyl)piperidine-1-carboxamide]
- IC50 [1]: 0.0001 to 10 µM
- IC50 [2]: 0.0001 to 10 µM
- IC50 [3]: 0.0001 to 10 µM
- IC50 [4]: 0.0001 to 10 µM
